According to patent publication US11084800B2 (Achillion Pharmaceuticals, Inc., priority 2017, dated 2021):

Molecular target: Human Factor D (Homo sapiens (Human), UniProt P00746)
Experiment: Human Factor D Assay
Assay type: biochemical
Conditions: Factor D inhibition, assay of Example 10; read-out: IC5 (Stars)
Method in brief: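 Thioester substrate Z-L-Lys-SBz (100 μM) with Ellman's reagent DTNB (100 μM) reports activity of 80 nM human serum-derived enzyme, kinetically at 405 nm over 30 min. Compound preincubated 5 min, room temperature, pH 7.5 Tris/1 M NaCl; IC50 by nonlinear fit of rates.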

Chain of Human Factor D (P00746 26-253): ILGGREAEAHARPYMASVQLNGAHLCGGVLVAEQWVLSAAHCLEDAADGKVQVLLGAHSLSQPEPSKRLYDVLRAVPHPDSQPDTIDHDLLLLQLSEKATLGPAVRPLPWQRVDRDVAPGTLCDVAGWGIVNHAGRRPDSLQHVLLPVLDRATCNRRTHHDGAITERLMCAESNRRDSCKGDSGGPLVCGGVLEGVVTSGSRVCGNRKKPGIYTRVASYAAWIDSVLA

CC(=O)c1nn(CC(=O)N2[C@H](C(=O)N[C@@H](C)c3cccc(Cl)c3)C[C@@]3(C)C[C@@H]23)c2ccc(-c3cnc(C)nc3)cc12 [Compound 599, (1R,3S,5R)-2-(2-(3-acetyl-5-(2-methylpyrimidin-5-yl)-1H-indazol-1-yl)acetyl)-N-((S)-1-(3-chlorophenyl)ethyl)-5-methyl-2-azabicyclo[3.1.0]hexane-3-carboxamide] and CC(=O)c1nn(CC(=O)N2[C@H](C(=O)N[C@H](C)c3cccc(Cl)c3F)C[C@@]3(C)C[C@@H]23)c2ccc(-c3cnc(C)nc3)cc12 [Compound 601, (1R,3S,5R)-2-(2-(3-acetyl-5-(2-methylpyrimidin-5-yl)-1H-indazol-1-yl)acetyl)-N-((R)-1-(3-chloro-2-fluorophenyl)ethyl)-5-methyl-2-azabicyclo[3.1.0]hexane-3-carboxamide] cannot be ordered by IC50: under 1000 nM for the first, under 1000 nM for the second.

First: CC(=O)c1nn(CC(=O)N2[C@H](C(=O)N[C@@H](C)c3ccccc3F)C[C@@]3(C)C[C@@H]23)c2ccc(-c3cnc(C)nc3)cc12 [Compound 600, (1R,3S,5R)-2-(2-(3-acetyl-5-(2-methylpyrimidin-5-yl)-1H-indazol-1-yl)acetyl)-N-((S)-1-(2-fluorophenyl)ethyl)-5-methyl-2-azabicyclo[3.1.0]hexane-3-carboxamide]
Second: CC(=O)c1nn(CC(=O)N2[C@H](C(=O)NCCC3CCOCC3)C[C@@]3(C)C[C@@H]23)c2c(C)cc(-c3cnc(C)nc3)cc12 [Compound 606, (1R,3S,5R)-2-(2-(3-acetyl-7-methyl-5-(2-methylpyrimidin-5-yl)-1H-indazol-1-yl)acetyl)-5-methyl-N-(2-(tetrahydro-2H-pyran-4-yl)ethyl)-2-azabicyclo[3.1.0]hexane-3-carboxamide]
The IC50 of the first is lower: under 1000 nM for the first, 1000 to 10000 nM for the second. The first is the more potent here.

CC(=O)c1nn(CC(=O)N2[C@H](C(=O)NCCN3CCOCC3)C[C@@]3(C)C[C@@H]23)c2c(C)cc(-c3cnc(C)nc3)cc12 [Compound 607, (1R,3S,5R)-2-(2-(3-acetyl-7-methyl-5-(2-methylpyrimidin-5-yl)-1H-indazol-1-yl)acetyl)-5-methyl-N-(2-morpholinoethyl)-2-azabicyclo[3.1.0]hexane-3-carboxamide] gave an IC50 of 1000 to 10000 nM.

Same assay, conditions: Table 6; Factor D 80 nM, substrate Z-L-Lys-SBz; read-out: IC50

For “(1R,3S,5S)-2-(2-(3-Acetyl-5-(2-methylpyrimidin-5-yl)-1H-indazol-1-yl)acetyl)-N-(6-bromo-3-(methoxymethyl)pyridin-2-yl)-5-(methoxymethyl)-2-azabicyclo[3.1.0]hexane-3-carboxamide [Compound 49]”, the IC50 was under 1000 nM.
